Columns and labels:
3T3-L1 adipocytes = test: O-GlcNAc levels by Western blot (RL-2 antibody) of whole-cell extracts, mouse immortalized adipocytes; type: cell-based; conditions: PUGNAc 100 μM vs low glucose (LG), FIG. 1
Method: 3T3s cell lines: 3T3-L1 and -F442A fibroblasts were maintained and differentiated on 10 cm plates essentially as previously described^11,25. Briefly, two days after the cells reached confluence, cells were induced to differentiate with high ([…], 3T3-L1) or low (3T3-F442A) glucose ([…]) DMEM containing 10% fetal bovine serum (3T3-L1) or 10% calf serum (3T3-F442A) via addition of 0.5 mM (115 μg/mL) 3-isobutyl-1-methyxanthine (MIX, Sigma), 1 μM (390 ng/mL) dexamethasone (Sigma), and 175 nM (1 μg/mL) recombinant insulin (human, Roche). After 48 hrs (day 2), the medium was replaced with high (3T3-L1) or low (3T3-F442A) glucose DMEM plus 10% FBS and supplemented with 1 μg/mL insulin for an additional 48 hrs. After 96 hrs (day 4), cells were maintained in appropriate medium depending on the condition being examined.
On the designated days (day 4 for 3T3-L1, day 5 for 3T3-F442A, and day 9 for rat primary adipocytes), adipocytes were induced with a combined treatment of low or high glucose containing 10% FBS, with or without insulin (100 nM) and PUGNAc (100 μM, TRC Inc.) according to the experimental conditions described in the results. After 24 hrs incubation, the medium was removed and the cells were washed five times with low or high glucose serum-free DMEM without antibiotics and vitamins and incubated with the last rinse for 15 min. […]

rat primary adipocytes [1] = test: O-GlcNAc levels by Western blot (RL-2 antibody) of whole-cell extracts, rat primary adipocytes; type: cell-based; conditions: PUGNAc 100 μM vs low glucose (LG), FIG. 1
Excerpt: Rat Primary cell culture: inguinal and retroperitoneal fat pads were removed aseptically from male Sprague-Dawley rats (Harlan Industries, Indianapolis, Ind.) and primary preadipocytes were isolated as described in detail previously^26,27. After additional washing and centrifugation steps, the preadipocyte pellet was resuspended in plating medium (high glucose DMEM, antibiotics: PS, 10% FBS) and seeded at an average density of 1.35×10^4 cells/cm^2 for inguinal and 1.63×10^3 cells/cm^2 for retroperitoneal on 10 cm dishes for the differentiation. Primary cells were maintained in a humidified atmosphere containing 5% CO2 in air at 37° C. and cultured to confluence, changing the plating medium every 2 days. After 2 days of confluence, referred to as day 0, the medium was replaced with differentiation medium (high glucose DMEM containing antibiotics and 10% FBS, 0.25 mM MIX, 0.1 μM dexamethasone, and 17 nM insulin) and at day 2, an additional 17 nM of insulin was administered with the plating medium for an additional 48 hrs incubation. The cells were maintained in low glucose DMEM containing 10% FBS and treatments (see below) until harvest. […]

rat primary adipocytes [2] = test: Quantitative LC-MS/MS and 2D-LC-MS/MS analysis of the secreted proteome of primary rat adipocytes; type: cell-based
Excerpt: Rat Primary cell culture: inguinal and retroperitoneal fat pads were removed aseptically from male Sprague-Dawley rats (Harlan Industries, Indianapolis, Ind.) and primary preadipocytes were isolated as described in detail previously^26,27. After additional washing and centrifugation steps, the preadipocyte pellet was resuspended in plating medium (high glucose DMEM, antibiotics: PS, 10% FBS) and seeded at an average density of 1.35×10^4 cells/cm^2 for inguinal and 1.63×10^3 cells/cm^2 for retroperitoneal on 10 cm dishes for the differentiation. Primary cells were maintained in a humidified atmosphere containing 5% CO2 in air at 37° C. and cultured to confluence, changing the plating medium every 2 days. After 2 days of confluence, referred to as day 0, the medium was replaced with differentiation medium (high glucose DMEM containing antibiotics and 10% FBS, 0.25 mM MIX, 0.1 μM dexamethasone, and 17 nM insulin) and at day 2, an additional 17 nM of insulin was administered with the plating medium for an additional 48 hrs incubation. The cells were maintained in low glucose DMEM containing 10% FBS and treatments (see below) until harvest.
On the designated days (day 4 for 3T3-L1, day 5 for 3T3-F442A, and day 9 for rat primary adipocytes), adipocytes were induced with a combined treatment of low or high glucose containing 10% FBS, with or without insulin (100 nM) and PUGNAc (100 μM, TRC Inc.) according to the experimental conditions described in the results. After 24 hrs incubation, the medium was removed and the cells were washed five times with low or high glucose serum-free DMEM without antibiotics and vitamins and incubated with the last rinse for 15 min. After the final wash was removed, serum-free media supplemented with insulin (1 nM) or PUGNAc (100 μM) was added and cells were incubated for 16 hrs.
After incubation, the conditioned media were harvested with extreme care and then centrifuged once at 1,800 rpm at 4° C. for 7 min. The supernatants were filtered using 1 μm syringe filters (PALL). The samples were then collected in centrifuge tubes and centrifuged again at 30,000×G at 4° C. for 30 min. The samples were then transferred to an equilibrated spin column (Centriprep YM-3, Amicon, Millipore) and buffer-exchanged at 2,800 G and 4° C. into 40 mM ammonium bicarbonate (NH4HCO3) plus 1 mM DTT and concentrated. The concentrated samples were denatured with 1 M urea, reduced with 10 mM DTT for 1 hr at 56° C., carboxyamidomethylated with 55 mM iodoacetamide in the dark for 45 min, and then digested with 5 μg trypsin (Promega) in 40 mM NH4HCO3 overnight at 37° C. After digestion, the peptides were acidified with 200 μl of 1% trifluoroacetic acid (TFA). Desalting was subsequently performed with C18 spin columns (Vydac Silica C18, The Nest Group, Inc.), and the resulting peptides were dried down in a Speed Vac and stored at −20° C. until analyzed. For the subset of samples to be analyzed for N-linked glycosylation, peptides were resuspended in 19 μl ^18O-water and 1 μl of N-glycanase (PNGaseF, Prozyme) and allowed to incubate for 18 hours at 37° C. Peptides were dried back down and resuspended in 50 μl of 40 mM NH4HCO3 with 1 μg of trypsin, to remove any possible C-terminal incorporation of ^18O from residual trypsin activity^28, for 4 hours and then dried down and stored at −20° C. until analyzed.
The peptides were resuspended with 78 μl of mobile phase A (0.1% formic acid, FA, in water) and 2 μl of mobile phase B (80% acetonitrile, ACN, and 0.1% formic acid in water) and filtered with 0.2 μm filters (Nanosep, PALL). The samples were loaded off-line onto a nanospray tapered capillary column/emitter (360×75×15 μm, PicoFrit, New Objective) self-packed with C18 reverse-phase (RP) resin (8.5 cm, Waters) in a Nitrogen pressure bomb for 10 min at 1,000 p.s.i. (˜5 ul load) and then separated via a 160-min linear gradient of increasing mobile phase B at a flow rate of ˜200 nl/min directly into the mass spectrometer. […]

adipocytes = conditions: elevation of O-GlcNAc levels with PUGNAc; previously shown (ref 11); cited from earlier work
[3] = type 2 diabetes, randomized controlled trial, cited from earlier work
[4] = PUGNAc treatment vs insulin responsive (LG) condition, same direction with HG+insulin, Table 5

With `CC(=O)N[C@H]1/C(=N/OC(=O)Nc2ccccc2)O[C@H](CO)[C@@H](O)[C@@H]1O` [PUGNAc] the O-GlcNAc levels (3T3-L1 adipocytes) was “elevate O-GlcNAc levels significantly”, the O-GlcNAc levels (rat primary adipocytes [1]) was “elevate O-GlcNAc levels significantly” and the “secretion of serine protease inhibitor 2C (reconstructed ion chromatogram of a peptide)” value (rat primary adipocytes [2]; LG+PUG vs LG (normalized to 1.00), two biological replicates, FIG. 4A) was “upregulation”. For the same molecule, the “secretion of tetranectin (reconstructed ion chromatogram of a peptide)” value (rat primary adipocytes [2]; LG+PUG vs LG (normalized to 1.00), two biological replicates, FIG. 4B) was “upregulation”, the “secretion of cholesterol-binding protein NPC2” value (rat primary adipocytes [2]; PUGNAc treatment vs insulin responsive (LG) condition, both insulin resistance conditions) was “upregulated” and the “secretion of GP-39” value (rat primary adipocytes [2]; [4]) was “upregulation”. For the same molecule, the secretion of ceruloplasmin (rat primary adipocytes [2]; [4]) was “upregulation”, the “secretion of fibulin-2” value (rat primary adipocytes [2]; [4]) was “downregulated” and the “secretion of lipoprotein lipase” value (rat primary adipocytes [2]; [4]) was “upregulation”. The “secretion of protein-S” value (rat primary adipocytes [2]; [4]) was “upregulation”, the “secretion of slit homolog 3” value (rat primary adipocytes [2]; [4]) was “downregulated” and the secretion of spondin (rat primary adipocytes [2]; [4]) was “upregulation”. The “induction of insulin resistance” value (adipocytes) was “induces insulin resistance”.

For `CN(C)C(=N)N=C(N)N` [metformin], the “cumulative incidence of monotherapy failure at 5 years” value ([3]; 5 years) is given as 21%.

For `CN(CCOc1ccc(CC2SC(=O)NC2=O)cc1)c1ccccn1` (stereo not drawn) [rosiglitazone], the “weight gain and edema” value ([3]; compared with metformin and glyburide) is given as “more weight gain and edema”.
